pIC50: −log10 of the molar value.
Each molecule was assayed against T1, FXR ligand binding domain (Homo sapiens, UniProt Q96RI1) (assay: Radioligand Binding Assay (scintillation proximity radioligand displacement)). Settings: GST-FXR LBD fusion protein on SPA beads, test compound 6×10^−9 M to 2.5×10^−5 M.
T1 construct: made in house; host or cells: E. coli BL21 (pLysS)
T1 sequence (Q96RI1 193-472 isoform Q96RI1-2): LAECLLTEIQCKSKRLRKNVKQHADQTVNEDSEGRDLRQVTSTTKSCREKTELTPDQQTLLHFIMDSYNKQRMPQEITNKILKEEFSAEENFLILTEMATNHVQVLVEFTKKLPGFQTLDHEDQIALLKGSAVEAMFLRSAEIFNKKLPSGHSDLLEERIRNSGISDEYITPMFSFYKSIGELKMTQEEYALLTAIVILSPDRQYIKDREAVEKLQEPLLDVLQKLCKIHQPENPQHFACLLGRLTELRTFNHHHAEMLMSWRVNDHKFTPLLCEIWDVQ
Experimental: The following tests were carried out in order to determine the activity of the compounds of formula (I). Background information on the binding assay can be found in: Nichols J S et al. “Development of a scintillation proximity assay for peroxisome proliferator-activated receptor gamma ligand binding domain”, (1998) Anal. Biochem. 257: 112-119.
Bacterial and mammalian expression vectors were constructed to produce glutathione-s-transferase (GST) and Gal4 DNA binding domain (GAL) proteins fused to the ligand binding domain (LBD) of human FXR (aa 193-473). To accomplish this, the portions of the sequences encoding the FXR LBD were amplified by polymerase chain reaction (PCR) from a full-length clone by PCR and then subcloned into the plasmid vectors. The final clone was verified by DNA sequence analysis.
The induction, expression, and subsequent purification of GST-LBD fusion protein was performed in E. coli strain BL21 (pLysS) cells by standard methods (Current Protocols in Molecular Biology, Wiley Press, ed. Ausubel et al.).
Radioligand Binding Assay
Binding of test substances to the FXR ligand binding domain was assessed in a radioligand displacement assay. The assay was performed in a buffer consisting of 50 mM Hepes, pH 7.4, 10 mM NaCl, 5 mM MgCl2, 0.01% CHAPS. For each reaction well in a 96-well plate, 40 nM of GST-FXR LBD fusion protein was bound to […] glutathione ytrium silicate SPA beads (PharmaciaAmersham) in a final volume of […] by shaking. A radioligand (e.g., 20 nM of 2,N-dicyclohexyl-2-[2-(2,4 dimethoxy-phenyl)-benzoimidazol-1-yl]-acetamide) and test compounds were added, and scintillation proximity counting was performed. All binding assays were performed in 96-well plates and the amount of bound ligand was measured on a Packard TopCount using OptiPlates (Packard). Dose response curves were performed within a range of test compound concentrations from 6×10^−9 M to 2.5×10^−5 M and IC50 values were calculated.

pIC50	Compound
7.05	O=C(O)c1ccc(CCc2ccccc2-c2nc3ccccc3n2CC2CCCCC2)cc1 [Example 78, 4-{2-[2-(1-Cyclohexylmethyl-1H-benzoimidazol-2-yl)-phenyl]-ethyl}-benzoic acid]
6.10	O=C(O)COc1ccc(COc2cc(Cl)ccc2-c2nc3cc(F)c(F)cc3n2Cc2ccccc2)cc1 [Example 52, {4-[2-(1-Benzyl-5,6-difluoro-1H-benzoimidazol-2-yl)-5-chloro-phenoxymethyl]-phenoxy}-acetic acid]
6.15	O=C(O)C1CCC(COc2cc(Cl)ccc2-c2nc3cc(F)c(F)cc3n2CC2CCCCC2)CC1 (centres unmarked) [Example 29, 4-[5-Chloro-2-(1-cyclohexylmethyl-5,6-difluoro-1H-benzoimidazol-2-yl)-phenoxymethyl]-cyclohexane carboxylic acid]
5.68	O=C(O)CCCCCOc1cc(Cl)ccc1-c1nc2cc(F)c(F)cc2n1CC1CCCCC1 [Example 26, 6-[5-Chloro-2-(1-cyclohexylmethyl-5,6-difluoro-1H-benzoimidazol-2-yl)-phenoxy]-hexanoic acid]
7.70	Fc1cc2nc(-c3ccc(Cl)cc3OCC3CCC3)n(Cc3ccc(-c4nnn[nH]4)cc3F)c2cc1F [Example 92, 2-(4-Chloro-2-cyclobutylmethoxy-phenyl)-5,6-difluoro-1-[2-fluoro-4-(1H-tetrazol-5-yl)-benzyl]-1H-benzoimidazole]
6.70	Fc1cc2nc(-c3ccc(Cl)cc3OCc3ccc(-c4nnn[nH]4)cc3C(F)(F)F)n(CC3CCCCC3)c2cc1F [Example 38, 2-{4-Chloro-2-[4-(1H-tetrazol-5-yl)-2-trifluoromethyl-benzyloxy]-phenyl}-1-cyclohexylmethyl-5,6-difluoro-1H-benzoimidazole]
5.54	Fc1cc2nc(-c3cccnc3OCC3CC3)n(CC3CCCCC3)c2cc1F [Example 2, 1-Cyclohexylmethyl-2-(2-cyclopropylmethoxy-pyridin-3-yl)-5,6-difluoro-1H-benzoimidazole]
6.15	Fc1cc2nc(-c3cccnc3OCc3ccccc3Cl)n(CC3CCCCC3)c2cc1F [Example 3, 2-[2-(2-Chloro-benzyloxy)-pyridin-3-yl]-1-cyclohexylmethyl-5,6-difluoro-1H-benzoimidazole]
6.40	Fc1cc2nc(-c3ccc(Cl)cc3OCc3ccccc3Cl)n(Cc3ccccc3)c2cc1F [Example 48, 1-Benzyl-2-[4-chloro-2-(2-chloro-benzyloxy)-phenyl]-5,6-difluoro-1H-benzoimidazole]
7.52	O=C(O)CCc1ccc(Cn2c(-c3ccc(Cl)cc3OCc3ccccc3Cl)nc3cc(F)c(F)cc32)cc1 [Example 58, 3-(4-{2-[4-Chloro-2-(2-chloro-benzyloxy)-phenyl]-5,6-difluoro-benzoimidazol-1-ylmethyl}-phenyl)-propionic acid]
7.05	Fc1cc2nc(-c3ccc(Cl)cc3OCc3ccc(-c4nnn[nH]4)cc3F)n(CCC3CCCCC3)c2cc1F [Example 43, 2-{4-Chloro-2-[2-fluoro-4-(1H-tetrazol-5-yl)-benzyloxy]-phenyl}-1-(2-cyclohexyl-ethyl)-5,6-difluoro-1H-benzoimidazole]
6.70	Fc1cc2nc(-c3ccc(Cl)cc3OCc3ccc(-c4nnn[nH]4)s3)n(CC3CCCCC3)c2cc1F [Example 37, 2-{4-Chloro-2-[5-(1H-tetrazol-5-yl)-thiophen-2-ylmethoxy]-phenyl}-1-cyclohexylmethyl-5,6-difluoro-1H-benzoimidazole]
7.22	Fc1cc2nc(-c3ccc(Cl)cc3OCC3CC3)n(Cc3ccc(-c4nnn[nH]4)cc3F)c2cc1F [Example 89, 2-(4-Chloro-2-cyclopropylmethoxy-phenyl)-5,6-difluoro-1-[2-fluoro-4-(1H-tetrazol-5-yl)-benzyl]-1H-benzoimidazole]
5.59	Fc1cc2nc(-c3ccc(Cl)cc3OCC3CC3)n(Cc3cccc(Cl)c3)c2cc1F [Example 55, 1-(3-Chloro-benzyl)-2-(4-chloro-2-cyclopropylmethoxy-phenyl)-5,6-difluoro-1H-benzoimidazole]
7.40	Fc1cc2nc(-c3ccc(Cl)cc3OCC3CCCC3)n(Cc3ccc(-c4nnn[nH]4)cc3)c2cc1F [Example 68, 2-(4-Chloro-2-cyclopentylmethoxy-phenyl)-5,6-difluoro-1-[4-(1H-tetrazol-5-yl)-benzyl]-1H-benzoimidazole]
7.05	Fc1cc2nc(-c3ccc(Cl)cc3OCCc3ccc(-c4nnn[nH]4)cc3)n(CC3CCCCC3)c2cc1F [Example 36, 2-(4-Chloro-2-{2-[4-(1H-tetrazol-5-yl)-phenyl]-ethoxy}-phenyl)-1-cyclohexylmethyl-5,6-difluoro-1H-benzoimidazole]
7.40	Fc1cc2nc(-c3ccc(Cl)cc3OCc3ccc(-c4nnn[nH]4)cc3F)n(CC3CCCC3)c2cc1F [Example 42, 2-{4-Chloro-2-[2-fluoro-4-(1H-tetrazol-5-yl)-benzyloxy]-phenyl}-1-cyclopentylmethyl-5,6-difluoro-1H-benzoimidazole]
7.00	Fc1cc2nc(-c3ccc(Cl)cc3OCc3ccc(-c4nnn[nH]4)cc3F)n(CC3CCCCO3)c2cc1F (centres unmarked) [Example 45, 2-{4-Chloro-2-[2-fluoro-4-(1H-tetrazol-5-yl)-benzyloxy]-phenyl}-5,6-difluoro-1-(tetrahydro-pyran-2-ylmethyl)-1H-benzoimidazole]
4.18	O=C(O)CCc1ccc(Cn2c(-c3cccnc3OCC3CC3)nc3cc(F)c(F)cc32)cc1 [Example 16, 3-{4-[2-(2-Cyclopropylmethoxy-pyridin-3-yl)-5,6-difluoro-benzoimidazol-1-ylmethyl]-phenyl}-propionic acid]
6.70	Fc1cc2nc(-c3ccc(Cl)cc3OCC3CCCC3)n(CC3CCCCC3)c2cc1F [Example 20, 2-(4-Chloro-2-cyclopentylmethoxy-phenyl)-1-cyclohexylmethyl-5,6-difluoro-1H-benzoimidazole]
8.40	Fc1cc2nc(-c3ccccc3COc3ccc(-c4nnn[nH]4)cc3F)n(CC3CCCCC3)c2cc1F [Example 40, 1-Cyclohexylmethyl-5,6-difluoro-2-{2-[2-fluoro-4-(1H-tetrazol-5-yl)-phenoxymethyl]-phenyl}-1H-benzoimidazole]
7.52	O=C(O)c1ccc(CCc2cc(Cl)ccc2-c2nc3ccccc3n2CC2CCCCC2)cc1 [Example 75, 4-{2-[5-Chloro-2-(1-cyclohexylmethyl-1H-benzoimidazol-2-yl)-phenyl]-ethyl}-benzoic acid]
7.52	Clc1ccc(-c2nc3ccccc3n2CC2CCCCC2)c(CCc2ccc(-c3nnn[nH]3)cc2)c1 [Example 74, 2-(4-Chloro-2-{2-[4-(1H-tetrazol-5-yl)-phenyl]-ethyl}-phenyl)-1-cyclohexylmethyl-1H-benzoimidazole]
5.44	Fc1cc2nc(-c3cccnc3OCC3CC3)n(Cc3cccc(Cl)c3)c2cc1F [Example 13, 1-(3-Chloro-benzyl)-2-(2-cyclopropylmethoxy-pyridin-3-yl)-5,6-difluoro-1H-benzoimidazole]
7.10	Fc1cc2nc(-c3ccc(Cl)cc3OCC3CCCC3)n(Cc3ccc(-c4nnn[nH]4)c(F)c3)c2cc1F [Example 69, 2-(4-Chloro-2-cyclopentylmethoxy-phenyl)-5,6-difluoro-1-[3-fluoro-4-(1H-tetrazol-5-yl)-benzyl]-1H-benzoimidazole]
6.70	O=C(O)COc1ccc(COc2cc(Cl)ccc2-c2nc3cc(F)c(F)cc3n2Cc2cccc(Cl)c2)cc1 [Example 57, (4-{5-Chloro-2-[1-(3-chloro-benzyl)-5,6-difluoro-1H-benzoimidazol-2-yl]-phenoxymethyl}-phenoxy)-acetic acid]
7.00	CCCCCn1c(-c2ccc(Cl)cc2OCc2ccc(-c3nnn[nH]3)cc2F)nc2cc(F)c(F)cc21 [Example 44, 2-{4-Chloro-2-[2-fluoro-4-(1H-tetrazol-5-yl)-benzyloxy]-phenyl}-5,6-difluoro-1-pentyl-1H-benzoimidazole]
5.24	O=C(O)c1ccc(COc2ncccc2-c2nc3cc(F)c(F)cc3n2CC2CCCCC2)cc1 [Example 4, 4-[3-(1-Cyclohexylmethyl-5,6-difluoro-1H-benzoimidazol-2-yl)-pyridin-2-yloxymethyl]-benzoic acid]

Compound	pIC50
CCC(CC)COc1cc(Cl)ccc1-c1nc2cc(F)c(F)cc2n1Cc1ccc(-c2nnn[nH]2)cc1F [Example 88, 2-[4-Chloro-2-(2-ethyl-butoxy)-phenyl]-5,6-difluoro-1-[2-fluoro-4-(1H-tetrazol-5-yl)-benzyl]-1H-benzoimidazole]	8.00
